IC50 data for 28 compounds are collected here from ChEMBL document CHEMBL3102724, “Isolation of antiplasmodial anthraquinones from Kniphofia ensifolia, and synthesis and structure-activity relationships of related compounds” (Bioorg Med Chem, 2014).

In one test the test system is Plasmodium falciparum. The test is described as follows: Antiplasmodial activity against chloroquine-resistant ring stage Plasmodium falciparum Dd2 after 72 hrs by SYBR Green 1-based fluorescence assay. In kind it is functional, organism-based. Particulars: Dd2, 72 h.
In the next test the test system is A2780. The test is described as follows: Cytotoxicity against human A2780 cells. In kind it is cell-based.

Each structure is given as a SMILES string.

As to `Cc1cc(O)c2c(c1)C(=O)c1ccc(C3(O)c4cccc(O)c4C(=O)c4c(O)cc(C)cc43)c(O)c1C2=O` (configuration not stated), the IC50 is 0.4 µM in the test with Plasmodium falciparum and 6 µM in the test on A2780.

For the compound `Cc1cc(O)c2c(c1)C(O)(c1ccc3c(c1O)C(=O)c1c(O)cc(C)c(O)c1C3=O)c1cccc(O)c1C2=O` (configuration not stated), the IC50 in the test on Plasmodium falciparum was found to be 0.2 µM; with A2780 it was 4 µM.

In the case of `Cc1cc(O)c2c(c1)C(=O)c1ccc(-c3c(C)cc(O)c4c3C(=O)c3cccc(O)c3C4=O)c(O)c1C2=O`, the IC50 in the test with Plasmodium falciparum is 10 µM; in the test on A2780 it was > 60 µM.

On to `Cc1cc(O)cc2c1C(=O)c1cc(-c3c(C)cc4c(c3O)C(=O)c3c(O)cccc3C4=O)cc(O)c1C2=O`, for which the IC50 was 10 µM with Plasmodium falciparum and > 60 µM with A2780.

Turning to `CC(=O)OCc1cc(O)c2c(c1)C(=O)c1cccc(O)c1C2=O`, the IC50 in the test with Plasmodium falciparum stood at 42 µM.

With `O=C(OCc1cc(O)c2c(c1)C(=O)c1cccc(O)c1C2=O)c1ccccc1`, the IC50 with Plasmodium falciparum is 31 µM.

For the compound `C/C=C/C(=O)OCc1cc(O)c2c(c1)C(=O)c1cccc(O)c1C2=O`, in the test on Plasmodium falciparum, the IC50 came to 45 µM.

As to `O=C(CCc1ccccc1)OCc1cc(O)c2c(c1)C(=O)c1cccc(O)c1C2=O`, the IC50 in the test with Plasmodium falciparum came to 36 µM.

Take `O=C(/C=C/c1ccccc1)OCc1cc(O)c2c(c1)C(=O)c1cccc(O)c1C2=O`: in the test on Plasmodium falciparum, the IC50 came out at 18 µM.

In the test on Plasmodium falciparum, `COc1ccc(C(=O)OCc2cc(O)c3c(c2)C(=O)c2cccc(O)c2C3=O)cc1` gave an IC50 of 22 µM.

In the test with Plasmodium falciparum, `COc1ccc(/C=C/C(=O)OCc2cc(O)c3c(c2)C(=O)c2cccc(O)c2C3=O)cc1` displayed an IC50 of 5 µM. Against the preceding compound, the IC50 is about 4.4-fold lower.

With `CC(=O)Oc1ccc(/C=C/C(=O)OCc2cc(O)c3c(c2)C(=O)c2cccc(O)c2C3=O)cc1`, it took 12 µM to reach half-maximal inhibition with Plasmodium falciparum (IC50).

In the case of `CC(=O)Oc1ccc(C(=O)OCc2cc(O)c3c(c2)C(=O)c2cccc(O)c2C3=O)cc1`, in the test with Plasmodium falciparum, the IC50 came out at 30 µM.

Regarding `COc1ccc(C(=O)OCc2cc(O)c3c(c2)C(=O)c2cccc(O)c2C3=O)cc1OC`, the IC50 in the test with Plasmodium falciparum was 14 µM.

Compound `COc1cc(C(=O)OCc2cc(O)c3c(c2)C(=O)c2cccc(O)c2C3=O)cc(OC)c1OC` yielded an IC50 in the test on Plasmodium falciparum of 16 µM.

With `COc1ccc(/C=C/C(=O)OCc2cc(O)c3c(c2)C(=O)c2cccc(O)c2C3=O)cc1OC`, in the test on Plasmodium falciparum, the IC50 was determined as 1.3 µM.

On to `COc1cc(/C=C/C(=O)OCc2cc(O)c3c(c2)C(=O)c2cccc(O)c2C3=O)cc(OC)c1OC`, for which half-maximal inhibition in the test on Plasmodium falciparum (IC50) required 2.7 µM.

`COc1cc(/C=C/C(=O)OCc2cc(O)c3c(c2)C(=O)c2cccc(O)c2C3=O)cc(OC)c1`: inhibition in the test with Plasmodium falciparum was half-maximal at 2.5 µM (IC50).

On to `COc1ccc(/C=C/C(=O)OCc2cc(O)c3c(c2)C(=O)c2cccc(O)c2C3=O)c(OC)c1`, for which the IC50 with Plasmodium falciparum came to 6 µM. This IC50 lies about 2.4-fold higher than the previous one.

In the test on Plasmodium falciparum, `COc1cccc(/C=C/C(=O)OCc2cc(O)c3c(c2)C(=O)c2cccc(O)c2C3=O)c1OC` came in with an IC50 of 8 µM.

In turn, `COc1ccc(OC)c(/C=C/C(=O)OCc2cc(O)c3c(c2)C(=O)c2cccc(O)c2C3=O)c1` registered an IC50 with Plasmodium falciparum of 9 µM. The IC50 values of the last two compounds are within 1.5-fold of each other.

In the case of `O=C(/C=C/c1ccc2c(c1)OCO2)OCc1cc(O)c2c(c1)C(=O)c1cccc(O)c1C2=O`, the concentration for half-maximal inhibition (IC50) in the test on Plasmodium falciparum turned out to be 1.9 µM.

Turning to `O=C(OCc1cc(O)c2c(c1)C(=O)c1cccc(O)c1C2=O)c1ccc(O)cc1`, the IC50 is 26 µM in the test on Plasmodium falciparum and > 60 µM in the test with A2780.

Regarding `O=C(/C=C/c1ccc(O)cc1)OCc1cc(O)c2c(c1)C(=O)c1cccc(O)c1C2=O`, the IC50 is 9 µM in the test on Plasmodium falciparum and > 60 µM with A2780.

As to `O=C1c2cccc(O)c2C(=O)c2c(O)cc(CO)cc21` [ALOE-EMODIN], the results for the IC50 in the test with Plasmodium falciparum and with A2780 were 55 µM and 26 µM, respectively.

`C[C@@H]1CC[C@H]2[C@@H](C)C(=O)O[C@@H]3O[C@@]4(C)CC[C@@H]1[C@]32OO4` [ARTEMISININ] gave an IC50 in the test on Plasmodium falciparum of 0.007 µM.

For `Cc1cc(O)c2c(c1)C(=O)c1cccc(O)c1C2=O` [CHRYSOPHANOL], the IC50 in the test with Plasmodium falciparum is 58 µM; in the test on A2780 it was > 60 µM.

On to `COc1cc(O)c(-c2c(C)cc(O)c3c2C(=O)c2cccc(O)c2C3=O)c(O)c1C(C)=O` [KNIPHOLONE], for which the results for the IC50 in the test with Plasmodium falciparum and in the test with A2780 were 1.1 µM and 8 µM, respectively.

Usually IC50 stands for the concentration at which inhibition is half-maximal. Read a low IC50 as greater potency in that assay.
